Laboratory results from US11180483B2, “Substituted reverse pyrimidine Bmi-1 inhibitors” (PTC Therapeutics, Inc., priority 2012, dated 2021).

system: Bmi-1; assay: Sandwich ELISA Assay (Bmi-1 ELISA) in HT-1080 cells; assay type: cell-based
Procedure, shortened: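 Bmi-1 in lysates was measured by a three-antibody ELISA with TMB, OD450 minus OD570 reference, interpolated on a GST-tagged recombinant Bmi-1 standard curve, 0-8000 pg/mL. Lysates came from HT-1080 cells treated 40-48 h with compound, final DMSO 0.5%.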

Row | Structure (SMILES) | EC50
1 | FC(F)(F)c1ccc(Nc2ccnc(-c3c(C(F)(F)F)nc4cnccn34)n2)cc1 [Cpd 46, 2-[2-(trifluoromethyl)imidazo[1,2-a]pyrazin-3-yl]-N-[4-(trifluoromethyl)phenyl]pyrimidin-4-amine] | 100 to 3000 nM
2 | Nc1nc(-c2c(C(F)(F)F)nc3ccc(F)cn23)nc(Nc2ccc(C(F)(F)F)cc2)c1F [Cpd 178, 5-fluoro-2-[6-fluoro-2-(trifluoromethyl)imidazo[1,2-a]pyridin-3-yl]-N-[4-(trifluoromethyl)phenyl]pyrimidine-4,6-diamine] | 100 to 3000 nM
3 | Cc1nc2ccccc2n1-c1nccc(Nc2ccc(C(F)(F)F)cc2)n1 [Cpd 41, 2-(2-methyl-1H-benzimidazol-1-yl)-N-[4-(trifluoromethyl)phenyl]pyrimidin-4-amine] | 100 to 3000 nM
4 | Cc1nc2ccccc2n1-c1nc(N)cc(Nc2ccc(C#N)cc2)n1 [Cpd 210, 4-{[6-amino-2-(2-methyl-1H-benzimidazol-1-yl)pyrimidin-4-yl]amino}benzonitrile] | 100 to 3000 nM
5 | COc1ccc(Nc2ccnc(-c3c(C(F)(F)F)nc4ccccn34)n2)cc1Cl [Cpd 35, N-(3-chloro-4-methoxyphenyl)-2-[2-(trifluoromethyl)imidazo[1,2-a]pyridin-3-yl]pyrimidin-4-amine] | 100 to 3000 nM
6 | Nc1nc(-n2c(C3CC3)nc3ccccc32)nc(Nc2ccc(OC(F)(F)F)cc2)c1F [Cpd 278, 2-(2-cyclopropyl-1H-benzimidazol-1-yl)-5-fluoro-N-[4-(trifluoromethoxy)phenyl]pyrimidine-4,6-diamine] | 100 to 3000 nM
7 | CC(C)c1ccc(Nc2ccnc(-c3c(C(F)(F)F)nc4ccccn34)n2)cc1 [Cpd 38, N-[4-(propan-2-yl)phenyl]-2-[2-(trifluoromethyl)imidazo[1,2-a]pyridin-3-yl]pyrimidin-4-amine] | 100 to 3000 nM
8 | FC(F)(F)c1ccc(Nc2ccnc(-c3c(C(F)(F)F)nc4ccc(Cl)cn34)n2)cc1 [Cpd 13, 2-[6-chloro-2-(trifluoromethyl)imidazo[1,2-a]pyridin-3-yl]-N-[4-(trifluoromethyl)phenyl]pyrimidin-4-amine] | 100 to 3000 nM
9 | COCCNc1cc(Nc2ccc(OC(F)F)cc2)nc(-n2c(C)nc3ccccc32)n1 [Cpd 59, N^4-[4-(difluoromethoxy)phenyl]-N^6-(2-methoxyethyl)-2-(2-methyl-1H-benzimidazol-1-yl)pyrimidine-4,6-diamine] | 100 to 3000 nM
10 | COc1cccc(Nc2nc(-n3c(C)nc4ccc(F)cc43)nc(N)c2F)c1 [Cpd 189, 5-fluoro-2-(6-fluoro-2-methyl-1H-benzimidazol-1-yl)-N-(3-methoxyphenyl)pyrimidine-4,6-diamine] | 100 to 3000 nM
11 | CC1(c2nc3ccccc3n2-c2nc(N)cc(Nc3ccc(C(F)(F)F)cc3)n2)CC1 [Cpd 147, 2-[2-(1-methylcyclopropyl)-1H-benzimidazol-1-yl]-N-[4-(trifluoromethyl]phenyl]pyrimidine-4,6-diamine] | 100 to 3000 nM
12 | Cc1nc2ccc(C#N)cc2n1-c1nc(N)c(F)c(Nc2ccc(OC(F)F)cc2)n1 [Cpd 223, 1-(4-amino-6-{[4-(difluoromethoxy)phenyl]amino}-5-fluoropyrimidin-2-yl)-2-methyl-1H-benzimidazole-6-carbonitrile] | 100 to 3000 nM
13 | Fc1ccc2nc(C(F)(F)F)c(-c3nccc(Nc4ccc(OC(F)F)cc4)n3)n2c1 [Cpd 55, N-[4-(difluoromethoxy)phenyl]-2-[6-fluoro-2-(trifluoromethyl)imidazo[1,2-a]pyridin-3-yl]pyrimidin-4-amine] | 100 to 3000 nM
14 | Cc1nc2cc(F)ccc2n1-c1nc(N)c(F)c(Nc2ccc(C(F)(F)F)cc2)n1 [Cpd 108, 5-fluoro-2-(5-fluoro-2-methyl-1H-benzimidazol-1-yl)-N-[4-(trifluoromethyl)phenyl]pyrimidine-4,6-diamine] | 100 to 3000 nM
15 | Nc1cc(Nc2ccc(C(F)(F)F)cc2)nc(-c2c(CO)nc3ccc(F)cn23)n1 [Cpd 84, [3-(4-amino-6-{[4-(trifluoromethyl)phenyl]amino}pyrimidin-2-yl)-6-fluoroimidazo[1,2-a]pyridin-2-yl]methanol] | 100 to 3000 nM
16 | Cc1nc2cc(Cl)ccc2n1-c1nc(N)c(F)c(Nc2ccc(C(F)(F)F)cc2)n1 [Cpd 158, 2-(5-chloro-2-methyl-1H-benzimidazol-1-yl)-5-fluoro-N-[4-(trifluoromethyl)phenyl]pyrimidine-4,6-diamine] | 100 to 3000 nM

The remaining lines, values ahead:

Row | EC50 | Structure (SMILES)
17 | 100 to 3000 nM | Cc1nc2c(F)cc(F)cc2n1-c1nc(N)c(F)c(Nc2ccc(OC(F)(F)F)cc2)n1 [Cpd 238, 2-(4,6-difluoro-2-methyl-1H-benzimidazol-1-yl)-5-fluoro-N-[4-(trifluoromethoxy)phenyl]pyrimidine-4,6-diamine]
18 | 10 to 100 nM | CN(C)c1ccc(Nc2ccnc(-c3c(C(F)(F)F)nc4ccccn34)n2)cn1 [Cpd 31, N^2,N^2-dimethyl-N^5-{2-[2-(trifluoromethyl)imidazo[1,2-a]pyridin-3-yl]pyrimidin-4-yl]pyridine-2,5-diamine]
19 | 10 to 100 nM | Nc1nc(-n2c(C3CC3)nc3c(F)cccc32)nc(Nc2ccc(OC(F)F)c(F)c2)c1F [Cpd 142, 2-(2-cyclopropyl-4-fluoro-1H-benzimidazol-1-yl)-N-[4-(difluoromethoxy)-3-fluorophenyl]-5-fluoropyrimidine-4,6-diamine]
20 | 10 to 100 nM | COC(=O)c1ccc(Nc2nc(-n3c(C)nc4ccc(F)cc43)nc(N)c2F)cc1 [Cpd 193, methyl 4-{[6-amino-5-fluoro-2-(6-fluoro-2-methyl-1H-benzimidazol-1-yl)pyrimidin-4-yl]amino}benzoate]
21 | 10 to 100 nM | Cc1nc2c(F)cccc2n1-c1nc(N)c(F)c(Nc2ccc(OC(F)F)c(F)c2)n1 [Cpd 136, N-[4-(difluoromethoxy)-3-fluorophenyl]-5-fluoro-2-(4-fluoro-2-methyl-1H-benzimidazol-1-yl)pyrimidine-4,6-diamine]
22 | 1 to 10 nM | Cc1ccc(Nc2nc(-n3c(C)nc4cc(F)ccc43)nc(N)c2F)cc1 [Cpd 281, 5-fluoro-2-(5-fluoro-2-methyl-1H-benzimidazol-1-yl)-N-(4-methylphenyl)pyrimidine-4,6-diamine]
23 | 10 to 100 nM | Cc1nc2ccc(Cl)cc2n1-c1nc(N)cc(Nc2ccc(OC(F)F)cc2)n1 [Cpd 97, 2-(6-chloro-2-methyl-1H-benzimidazol-1-yl)-N-[4-(difluoromethoxy)phenyl]pyrimidine-4,6-diamine]
24 | 10 to 100 nM | COc1ccc(Nc2ccnc(-c3c(C(F)(F)F)nc4ccc(OC)cn34)n2)cc1 [Cpd 50, N-(4-methoxyphenyl)-2-[6-methoxy-2-(trifluoromethyl)imidazo[1,2-a]pyridin-3-yl]pyrimidin-4-amine]
25 | 10 to 100 nM | CCc1nc2cc(F)ccc2n1-c1nc(N)c(F)c(Nc2ccc(OC(F)F)cc2)n1 [Cpd 163, N-[4-(difluoromethoxy)phenyl]-2-(2-ethyl-5-fluoro-1H-benzimidazol-1-yl)-5-fluoropyrimidine-4,6-diamine]
26 | 1 to 10 nM | COc1ccc(Nc2cc(N)nc(-n3c(C)nc4ccccc43)n2)cc1 [Cpd 197, N-(4-methoxyphenyl)-2-(2-methyl-1H-benzimidazol-1-yl)pyrimidine-4,6-diamine]
27 | 10 to 100 nM | Cc1nc2ccccc2n1-c1nc(N)c(F)c(Nc2ccc(Cl)cc2)n1 [Cpd 201, N-(4-chlorophenyl)-5-fluoro-2-(2-methyl-1H-benzimidazol-1-yl)pyrimidine-4,6-diamine]
28 | 10 to 100 nM | COc1ccc2nc(C)n(-c3nc(N)c(F)c(Nc4ccc5c(c4)OCO5)n3)c2c1 [Cpd 250, N-(1,3-benzodioxol-5-yl)-5-fluoro-2-(6-methoxy-2-methyl-1H-benzimidazol-1-yl)pyrimidine-4,6-diamine]
29 | 10 to 100 nM | COc1ccc(Nc2nc(-n3c(C)nc4ccc(N)cc43)nc(N)c2F)cc1 [Cpd 256, 2-(6-amino-2-methyl-1H-benzimidazol-1-yl)-5-fluoro-N-(4-methoxyphenyl)pyrimidine-4,6-diamine]
30 | 10 to 100 nM | Cc1nc2ncc(Cl)cc2n1-c1nc(N)c(F)c(Nc2ccc(C(F)(F)F)cc2)n1 [Cpd 114, 2-(6-chloro-2-methyl-1H-imidazo[4,5-b]pyridin-1-yl)-5-fluoro-N-[4-(trifluoromethyl)phenyl]pyrimidine-4,6-diamine]
31 | 10 to 100 nM | Nc1nc(-n2c(C3CC3)nc3ccccc32)nc(Nc2ccc(Cl)c(F)c2)c1F [Cpd 280, N-(4-chloro-3-fluorophenyl)-2-(2-cyclopropyl-1H-benzimidazol-1-yl)-5-fluoropyrimidine-4,6-diamine]
32 | 10 to 100 nM | Cc1nc2ccccn2c1-c1nccc(Nc2ccc(C(F)(F)F)cc2)n1 [Cpd 3, 2-(2-methylimidazo[1,2-a]pyridin-3-yl)-N-[4-(trifluoromethyl)phenyl]pyrimidin-4-amine]
33 | 10 to 100 nM | CCc1nc2c(F)cc(F)cc2n1-c1nc(N)c(F)c(Nc2ccc(OC(F)F)cc2)n1 [Cpd 132, N-[4-(difluoromethoxy)phenyl]-2-(2-ethyl-4,6-difluoro-1H-benzimidazol-1-yl)-5-fluoropyrimidine-4,6-diamine]
34 | 10 to 100 nM | Cc1nc2ccc(F)cc2n1-c1nc(N)cc(Nc2ccc(C(F)(F)F)cc2)n1 [Cpd 71, 2-(6-fluoro-2-methyl-1H-benzimidazol-1-yl)-N-[4-(trifluoromethyl)phenyl]pyrimidine-4,6-diamine]
35 | 10 to 100 nM | Nc1cc(Nc2ccc(OC(F)F)cc2)nc(-c2c(C(F)(F)F)nc3ccccn23)n1 [Cpd 65, N-[4-(difluoromethoxy)phenyl]-2-[2-(trifluoromethyl)imidazo[1,2-a]pyridin-3-yl]pyrimidine-4,6-diamine]
36 | 10 to 100 nM | FC(F)(F)c1nc2ccccn2c1-c1nccc(Nc2ccc3c(c2)OCCO3)n1 [Cpd 29, N-(2,3-dihydro-1,4-benzodioxin-6-yl)-2-[2-(trifluoromethyl)imidazo[1,2-a]pyridin-3-yl]pyrimidin-4-amine]
37 | 10 to 100 nM | CCOc1ccc(Nc2ccnc(-c3c(C(F)(F)F)nc4ccccn34)n2)cc1 [Cpd 37, N-(4-ethoxyphenyl)-2-[2-(trifluoromethyl)imidazo[1,2-a]pyridin-3-yl]pyrimidin-4-amine]
